Source: patent US20120121591A1 (priority 2009, published 2012)

Legend:
Assay type in all cases: cell-based
hKv1.3 = hKv1.3 (Homo sapiens, UniProt P22001); assay: cell-based; conditions: Kv1.3 (IWQ) IC50 (nM, Avg)
[1] = tested on: IL-2 secretion from T cells in human whole blood; conditions: read-out: WB (IL-2) IC50 (nM, Avg)
[2] = tested on: IFN-g secretion from T cells in human whole blood; conditions: read-out: WB (IFNg) IC50 (nM, Avg)

Sequence of hKv1.3 (P22001 whole entry): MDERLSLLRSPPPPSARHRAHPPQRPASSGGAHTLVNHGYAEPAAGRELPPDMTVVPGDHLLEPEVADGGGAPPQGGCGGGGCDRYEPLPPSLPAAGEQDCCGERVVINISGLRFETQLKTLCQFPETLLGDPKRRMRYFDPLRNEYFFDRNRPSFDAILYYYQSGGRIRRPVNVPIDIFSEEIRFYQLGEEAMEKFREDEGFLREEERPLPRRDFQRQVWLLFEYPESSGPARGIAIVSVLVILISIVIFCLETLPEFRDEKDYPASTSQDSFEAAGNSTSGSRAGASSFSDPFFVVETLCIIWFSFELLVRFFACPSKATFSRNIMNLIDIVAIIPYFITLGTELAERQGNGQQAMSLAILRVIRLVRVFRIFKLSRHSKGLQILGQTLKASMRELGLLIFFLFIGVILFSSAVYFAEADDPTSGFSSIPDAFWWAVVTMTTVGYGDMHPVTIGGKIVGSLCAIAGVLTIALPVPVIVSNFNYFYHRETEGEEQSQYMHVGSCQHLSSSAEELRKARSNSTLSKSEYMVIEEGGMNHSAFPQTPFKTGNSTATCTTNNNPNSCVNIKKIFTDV

Structure (SMILES)	IC50 (hKv1.3) [nM]	IC50 [1] [nM]	IC50 [2] [nM]
CC[C@H](C)[C@@H]1NC(=O)[C@@H](NC(=O)[C@H](CO)NC(=O)[C@@H](N)CCCNC(=N)N)CSSC[C@@H](C(N)=O)NC(=O)[C@H]([C@@H](C)O)NC(=O)CNC(=O)[C@@H]2CSSC[C@@H]3NC(=O)[C@H](CCCCN)NC(=O)[C@H](Cc4ccccc4)NC(=O)[C@H](C)NC(=O)[C@H]([C@@H](C)O)NC(=O)[C@H](CSSC[C@H](NC(=O)[C@H](Cc4ccccc4)NC(=O)[C@H](CO)NC(=O)[C@H](CC(C)C)NC(=O)[C@H](CCCNC(=N)N)NC(=O)[C@H](Cc4ccc(O)cc4)NC(=O)[C@H](CCCCN)NC(=O)[C@H](CCSC)NC(=O)[C@H](CO)NC(=O)[C@H](Cc4c[nH]cn4)NC(=O)[C@H](CCC(=O)O)NC3=O)C(=O)N[C@@H](CCCNC(=N)N)C(=O)N[C@@H](CCCCN)C(=O)N[C@@H]([C@@H](C)O)C(=O)N2)NC(=O)[C@H](CCCNC(=N)N)NC(=O)[C@H](CO)NC(=O)[C@H](CCCCN)NC(=O)[C@@H]2CCCN2C(=O)[C@H]([C@@H](C)CC)NC(=O)[C@H]([C@@H](C)O)NC(=O)[C@H](CC(=O)O)NC1=O [[Lys16, Glu18]ShK-amide]	0.065	0.119	0.234
CCCC[C@@H]1NC(=O)[C@H](CO)NC(=O)[C@H](Cc2c[nH]cn2)NC(=O)[C@H](CCC(=O)O)NC(=O)[C@@H]2CSSC[C@@H]3NC(=O)[C@H]([C@@H](C)O)NC(=O)[C@H](CCCCN)NC(=O)[C@H](CCCNC(=N)N)NC(=O)[C@H](CSSC[C@H](NC(=O)[C@H](CCCNC(=N)N)NC(=O)[C@H](CO)NC(=O)[C@H](CCCCN)NC(=O)[C@@H]4CCCN4C(=O)[C@H]([C@@H](C)CC)NC(=O)[C@H]([C@@H](C)O)NC(=O)[C@H](CC(=O)O)NC(=O)[C@H](CCC(=O)O)NC(=O)[C@@H](NC(=O)[C@H](CO)NC(=O)[C@@H](N)CCCNC(=N)N)CSSC[C@@H](C(N)=O)NC(=O)[C@H]([C@@H](C)O)NC(=O)CNC3=O)C(=O)N[C@@H]([C@@H](C)O)C(=O)N[C@@H](C)C(=O)N[C@@H](Cc3ccccc3)C(=O)N[C@@H](CCCCN)C(=O)N2)NC(=O)[C@H](Cc2ccccc2)NC(=O)[C@H](CO)NC(=O)[C@H](CC(C)C)NC(=O)[C@H](CCCNC(=N)N)NC(=O)[C@H](Cc2ccc(O)cc2)NC(=O)[C@H](CCCCN)NC1=O [[Glu4,18, Lys16,Nle21]ShK-amide]	0.239	0.603	0.934
CC[C@H](C)[C@@H]1NC(=O)[C@@H](NC(=O)[C@H](CO)NC(=O)[C@@H](N)CCCNC(=N)N)CSSC[C@@H](C(=O)O)NC(=O)[C@H]([C@@H](C)O)NC(=O)CNC(=O)[C@@H]2CSSC[C@@H]3NC(=O)[C@H](CCC(N)=O)NC(=O)[C@H](Cc4ccccc4)NC(=O)[C@H](C)NC(=O)[C@H]([C@@H](C)O)NC(=O)[C@H](CSSC[C@H](NC(=O)[C@H](Cc4ccccc4)NC(=O)[C@H](CO)NC(=O)[C@H](CC(C)C)NC(=O)[C@H](CCCNC(=N)N)NC(=O)[C@H](Cc4ccc(O)cc4)NC(=O)[C@H](CCCCN)NC(=O)[C@H](CCSC)NC(=O)[C@H](CO)NC(=O)[C@H](CCCCN)NC(=O)[C@H](CCCCN)NC3=O)C(=O)N[C@@H](CCCNC(=N)N)C(=O)N[C@@H](CCCCN)C(=O)N[C@@H]([C@@H](C)O)C(=O)N2)NC(=O)[C@H](CCCNC(=N)N)NC(=O)[C@H](CO)NC(=O)[C@H](CCCCN)NC(=O)[C@@H]2CCCN2C(=O)[C@H]([C@@H](C)CC)NC(=O)[C@H]([C@@H](C)O)NC(=O)[C@H](CC(=O)O)NC1=O [[Lys19]ShK]	0.189	0.041	0.089
CC[C@H](C)[C@@H]1NC(=O)[C@@H](NC(=O)[C@H](CO)NC(=O)[C@@H](N)CCCNC(=N)N)CSSC[C@@H](C(N)=O)NC(=O)[C@H]([C@@H](C)O)NC(=O)CNC(=O)[C@@H]2CSSC[C@@H]3NC(=O)[C@H](CCCCN)NC(=O)[C@H](Cc4ccccc4)NC(=O)[C@H](C)NC(=O)[C@H]([C@@H](C)O)NC(=O)[C@H](CSSC[C@H](NC(=O)[C@H](Cc4ccccc4)NC(=O)[C@H](Cc4ccc(O)cc4)NC(=O)[C@H](CC(C)C)NC(=O)[C@H](CCCNC(=N)N)NC(=O)[C@H](Cc4ccc(O)cc4)NC(=O)[C@H](CCCCN)NC(=O)[C@H](CCSC)NC(=O)[C@H](CO)NC(=O)[C@H](Cc4c[nH]cn4)NC(=O)[C@H](CCCCN)NC3=O)C(=O)N[C@@H](CCCCN)C(=O)N[C@@H](CCCCN)C(=O)N[C@@H]([C@@H](C)O)C(=O)N2)NC(=O)[C@H](CCCNC(=N)N)NC(=O)[C@H](CO)NC(=O)[C@H](CCCCN)NC(=O)[C@@H]2CCCN2C(=O)[C@H]([C@@H](C)CC)NC(=O)[C@H]([C@@H](C)O)NC(=O)[C@H](CC(=O)O)NC1=O [[Lys16,29;Tyr26]ShK-amide]	0.084	1.04	0.754
CCCC[C@@H]1NC(=O)[C@H](CO)NC(=O)[C@H](Cc2c[nH]cn2)NC(=O)[C@H](CCCCN)NC(=O)[C@@H]2CSSC[C@@H]3NC(=O)[C@H]([C@@H](C)O)NC(=O)[C@H](C)NC(=O)[C@H](CCCCN)NC(=O)[C@H](CSSC[C@H](NC(=O)[C@H](CCCNC(=N)N)NC(=O)[C@H](CO)NC(=O)[C@H](CCCCN)NC(=O)[C@@H]4CCCN4C(=O)[C@H]([C@@H](C)CC)NC(=O)[C@H]([C@@H](C)O)NC(=O)[C@H](CC(=O)O)NC(=O)[C@H]([C@@H](C)CC)NC(=O)[C@@H](NC(=O)[C@H](CO)NC(=O)[C@@H](N)CCCNC(=N)N)CSSC[C@@H](C(N)=O)NC(=O)[C@H]([C@@H](C)O)NC(=O)CNC3=O)C(=O)N[C@@H]([C@@H](C)O)C(=O)N[C@@H](C)C(=O)N[C@@H](Cc3ccccc3)C(=O)N[C@@H](CCCCN)C(=O)N2)NC(=O)[C@H](Cc2ccccc2)NC(=O)[C@H](CO)NC(=O)[C@H](CC(C)C)NC(=O)[C@H](CCCNC(=N)N)NC(=O)[C@H](Cc2ccc(O)cc2)NC(=O)[C@H](CCCCN)NC1=O [[Lys16, 29; Ala30,Nle21]ShK-amide]	0.057	0.791	1.7
CC[C@H](C)[C@@H]1NC(=O)[C@@H](NC(=O)[C@H](CO)NC(=O)[C@@H](N)CCCNC(=N)N)CSSC[C@@H](C(=O)O)NC(=O)[C@H]([C@@H](C)O)NC(=O)CNC(=O)[C@@H]2CSSC[C@@H]3NC(=O)[C@H](CCC(N)=O)NC(=O)[C@H](Cc4ccccc4)NC(=O)[C@H](C)NC(=O)[C@H]([C@@H](C)O)NC(=O)[C@H](CSSC[C@H](NC(=O)[C@H](Cc4ccccc4)NC(=O)[C@H](CO)NC(=O)[C@H](CC(C)C)NC(=O)[C@H](CCCNC(=N)N)NC(=O)[C@H](Cc4ccc(O)cc4)NC(=O)[C@H](CCCCN)NC(=O)[C@H](CCSC)NC(=O)[C@H](CO)NC(=O)[C@H](CCCNC(=N)N)NC(=O)[C@H](CCCCN)NC3=O)C(=O)N[C@@H](CCCNC(=N)N)C(=O)N[C@@H](CCCCN)C(=O)N[C@@H]([C@@H](C)O)C(=O)N2)NC(=O)[C@H](CCCNC(=N)N)NC(=O)[C@H](CO)NC(=O)[C@H](CCCCN)NC(=O)[C@@H]2CCCN2C(=O)[C@H]([C@@H](C)CC)NC(=O)[C@H]([C@@H](C)O)NC(=O)[C@H](CC(=O)O)NC1=O [[Arg19]ShK]	0.1	0.039	0.116
CCCC[C@@H]1NC(=O)[C@H](CO)NC(=O)[C@H](Cc2c[nH]cn2)NC(=O)[C@H](CCCCN)NC(=O)[C@@H]2CSSC[C@@H]3NC(=O)[C@H]([C@@H](C)O)NC(=O)[C@H](CCCNC(=N)N)NC(=O)[C@H](CCCCN)NC(=O)[C@H](CSSC[C@H](NC(=O)[C@H](CCCNC(=N)N)NC(=O)[C@H](CO)NC(=O)[C@H](CCCCN)NC(=O)[C@@H]4CCCN4C(=O)[C@H]([C@@H](C)CC)NC(=O)[C@H]([C@@H](C)O)NC(=O)[C@H](CC(=O)O)NC(=O)[C@H]([C@@H](C)CC)NC(=O)[C@@H](NC(=O)[C@H](CO)NC(=O)[C@@H](N)CCCNC(=N)N)CSSC[C@@H](C(N)=O)NC(=O)[C@H]([C@@H](C)O)NC(=O)CNC3=O)C(=O)N[C@@H]([C@@H](C)O)C(=O)N[C@@H](C)C(=O)N[C@@H](Cc3ccccc3)C(=O)N[C@@H](CCCCN)C(=O)N2)NC(=O)[C@H](Cc2ccccc2)NC(=O)[C@H](CO)NC(=O)[C@H](CC(C)C)NC(=O)[C@H](CCCNC(=N)N)NC(=O)[C@H](Cc2ccc(O)cc2)NC(=O)[C@H](CCCCN)NC1=O [[Lys16,29; Nle21,Arg30]ShK-amide]	0.484	1.72	2.84
CC[C@H](C)[C@@H]1NC(=O)[C@@H](NC(=O)[C@H](CO)NC(=O)[C@@H](N)CCCNC(=N)N)CSSC[C@@H](C(=O)O)NC(=O)[C@H]([C@@H](C)O)NC(=O)CNC(=O)[C@@H]2CSSC[C@@H]3NC(=O)[C@H](CCCNC(=N)N)NC(=O)[C@H](Cc4ccccc4)NC(=O)[C@H](C)NC(=O)[C@H]([C@@H](C)O)NC(=O)[C@H](CSSC[C@H](NC(=O)[C@H](Cc4ccccc4)NC(=O)[C@H](CO)NC(=O)[C@H](CC(C)C)NC(=O)[C@H](CCCNC(=N)N)NC(=O)[C@H](Cc4ccc(O)cc4)NC(=O)[C@H](CCCCN)NC(=O)[C@H](CCSC)NC(=O)[C@H](CO)NC(=O)[C@H](Cc4c[nH]cn4)NC(=O)[C@H](CCCCN)NC3=O)C(=O)N[C@@H](CCCNC(=N)N)C(=O)N[C@@H](CCCCN)C(=O)N[C@@H]([C@@H](C)O)C(=O)N2)NC(=O)[C@H](CCCNC(=N)N)NC(=O)[C@H](CO)NC(=O)[C@H](CCCCN)NC(=O)[C@@H]2CCCN2C(=O)[C@H]([C@@H](C)CC)NC(=O)[C@H]([C@@H](C)O)NC(=O)[C@H](CC(=O)O)NC1=O [[Arg16]ShK]	0.164	0.652	0.818
